For one assay, the system named is hApoA-1 mRNA. The experiment in a line: Up-regulation of hApoA-1 mRNA transcription in Huh7 cells. Conditions: EC170, Huh7 cells, 48 h treatment, ApoA-I mRNA. The assay is classed as cell-based, human. Here is the method: In this example, ApoA-I mRNA in tissue culture cells was quantitated to measure the transcriptional up-regulation of ApoA-I when treated with a compound of the invention.
Huh7 cells (2.5×10^5 per well) were plated in a 96-well plate using 100 μL DMEM per well, (Gibco DMEM supplemented with penicillin/streptomycin and 10% FBS), 24 h before the addition of the compound of interest. After 48 h treatment, the spent media was removed from the Huh-7 cells and placed on ice (for immediate use) or at −80° C. (for future use) with the “LDH cytotoxicity assay Kit II” from Abcam. The cells remaining in the plate were rinsed with 100 μL PBS.
Then 85 μL of cell lysis solution was added to each well and incubated for 5-10 min at room temperature, to allow for complete cell lysis and detachment. mRNA was then prepared using the “mRNA Catcher PLUS plate” from Life Technologies, according to the protocol supplied. After the last wash, as much wash buffer as possible was aspirated without allowing the wells to dry. […]
The eluted mRNA isolated was then used in a one-step real-time PCR reaction, using components of the Ultra Sense Kit together with Life Technologies primer-probe mixes. Real-time PCR data was analyzed, using the Ct values, to determine the fold induction of each unknown sample, relative to the control (that is, relative to the control for each independent DMSO concentration).

Another assay relates to hIL-6 mRNA. Put plainly: Inhibition of hIL-6 mRNA transcription in LPS-stimulated U937 cells. In kind it is cell-based. Conditions: Homo sapiens, U-937; PMA-differentiated U937 cells, 1 h pretreatment, 1 ug/mL LPS stimulation, 3 h; read-out: IL-6 activity (Inhibition of hIL-6 mRNA Transcription). In outline: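 U937 cells differentiated 3 days with 60 ng/mL PMA, pretreated 1 h with compound (0.1% DMSO), then stimulated with 1 ug/mL E. coli LPS for 3 h at 37 °C. hIL-6 mRNA measured by one-step TaqMan RT-qPCR, normalized to cyclophilin. Fold expression relative to control; triplicate wells.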

The test system of the next assay is human AML MV-4-11 cells. The experiment in a line: Inhibition of cell proliferation in MV4-11 cells (CellTiter Aqueous One). Conditions: MV4-11, 72 h. In kind it is cell-based. In outline:
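IC50 values come from blank-corrected proliferation relative to DMSO controls, read as 490 nm absorbance 3–4 h after CellTiter Aqueous One addition. Before that, cells seeded at 5×10^4/well were exposed for 72 h (37° C, 5% CO2) to triplicate two-fold compound dilutions spanning 30–0.2 μM.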

The test system of the next assay is c-myc. Put plainly: Inhibition of c-myc expression (mRNA, real-time PCR) in MV4-11 cells. The settings on record: Human AML MV4-11 cells, 3 h, cMYC mRNA. The assay is classed as cell-based. In outline: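 One-step TaqMan qPCR of cMYC, normalized to an internal control with Cyclophilin probes run, gave fold expression versus DMSO (0.1%) control. Samples: triplicate MV4-11 wells exposed 3 h at 37° C to rising compound concentrations in IMDM with 10% FBS.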

The next assay concerns hIL-17 mRNA. The experiment in a line: Inhibition of hIL-17 mRNA transcription in OKT3-stimulated peripheral blood mononuclear cells. The assay is classed as cell-based. The settings on record: PBMC, human peripheral blood mononuclear cells, OKT3 antibody, 6 h, read-out: IL-17 activity. Here is the method: In this example, hIL-17 mRNA in human peripheral blood mononuclear cells was quantitated to measure the transcriptional inhibition of hIL-17 when treated with a compound of the invention.
Human peripheral blood mononuclear cells were plated (2.0×10^5 cells per well) in a 96-well plate in 45 μL OpTimizer T Cell expansion media containing 20 ng/ml IL-2 and penicillin/streptomycin. The cells were treated with the test compound (45 μL at 2× concentration), and then the cells were incubated at 37° C. for 1 h before addition of 10× stock OKT3 antibody at 10 μg/ml in media. Cells were incubated at 37° C. for 6 h before the cells were harvested. At time of harvest, cells were centrifuged (800 rpm, 5 min). Spent media was removed and cell lysis solution (70 μL) was added to the cells in each well and incubated for 5-10 min at room temperature, to allow for complete cell lysis and detachment. mRNA was then prepared using the “mRNA Catcher PLUS plate” (Invitrogen), according to the protocol supplied. After the last wash, as much wash buffer as possible was aspirated without allowing the wells to dry. Elution buffer (E3, 70 μL) was then added to each well. mRNA was then eluted by incubating the mRNA Catcher PLUS plate with Elution Buffer for 5 min at 68° C. and then immediately placing the plate on ice.
The eluted mRNA isolated was then used in a one-step quantitative RT-PCR reaction, using components of the Ultra Sense Kit together with Applied Biosystems primer-probe mixes. Real-time PCR data was analyzed, normalizing the Ct values for hIL-17 to an internal control, prior to determining the fold induction of each unknown sample, relative to the control.

pIC50: −log10 of the molar value. Bounds are passed on as bounds.

As for `Cc1noc(C)c1-c1cc(N)c2ncn(Cc3ccccc3)c2c1` [Example Compound 7, 1-Benzyl-6-(3,5-dimethylisoxazol-4-yl)-1H-benzo[d]imidazol-4-amine], the ApoA-1 activity result in the assay with hApoA-1 mRNA was “+++ (EC170 value less than or equal to 0.3 μM were deemed to be highly active (+++))”. Besides, the pIC50 in the assay with hIL-6 mRNA is at least 6.52; in the assay on human AML MV-4-11 cells, at least 6.52; in the assay with c-myc it was 5.52 to 6.52; in the assay on hIL-17 mRNA it was at least 6.52.
